One compound from patent publication US5670521A, “Reversal of multi-drug resistance by triphenyl-azacycloalkane derivatives” (Merrell Pharmaceuticals Inc., priority 1996, dated 1997) can be followed below.

This test has as its system KBV1 cells. As to conditions: KBV1 vs wild type KB cells. The method, then: The ability of compounds of this invention to reverse multi drug resistance can be determined using standard test procedures. The ability of the test compounds to inhibit the growth of multidrug resistant human epidermoid carcinoma (KBV1) cells in the presence of both Vinblastine and the compound was determined.

For `CC[C@]1(O)C[C@@H]2CN(CCc3c([nH]c4ccccc34)[C@@](C(=O)OC)(c3cc4c(cc3OC)N(C)[C@H]3[C@@](O)(C(=O)OC)[C@H](OC(C)=O)[C@]5(CC)C=CCN6CC[C@]43[C@@H]65)C2)C1` [Vinblastine], the “resistance to vinblastine compared to wild type KB cells” value was “at least 1,000 times”.
